US20200000766A1, “COMPOSITIONS AND METHODS FOR AGONIZING THE CB2 RECEPTOR” (priority 2018, published 2020)

Assays:
[1] = system: transient receptor potential (TRP) channels; settings: cited from earlier work
human CB2 [2] = molecular target: T1, human CB2 (Homo sapiens, UniProt P34972); test: Cannabinoid Receptor 2 (CB2) activity, calcium FLIPR assay in CHO-K1 cells co-expressing human CB2 and G15; settings: FIG. 1 and FIG. 2
human CB2 [3] = molecular target: T1, human CB2; parameters: expressed in transfected cells; settings: cited from earlier work

T1 sequence (P34972 whole entry): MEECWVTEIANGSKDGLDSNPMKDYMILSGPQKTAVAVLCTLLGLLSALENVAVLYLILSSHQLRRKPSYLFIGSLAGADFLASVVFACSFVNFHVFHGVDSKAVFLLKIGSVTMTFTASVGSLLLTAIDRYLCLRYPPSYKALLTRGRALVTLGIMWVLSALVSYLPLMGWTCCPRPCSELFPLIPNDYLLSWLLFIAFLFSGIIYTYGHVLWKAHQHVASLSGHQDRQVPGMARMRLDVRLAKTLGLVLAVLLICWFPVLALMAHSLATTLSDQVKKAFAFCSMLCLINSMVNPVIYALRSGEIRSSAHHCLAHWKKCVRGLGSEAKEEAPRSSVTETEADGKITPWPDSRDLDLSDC

SMILES | agonism at several TRP channels [1] | agonist potency at the human CB2 receptor compared with other phytocannabinoid agonists (CBD, CBCV) (human CB2 [2]) | potency at human CB2 receptor relative to CBD (human CB2 [2]; two independent experiments) | agonism at the CB2 receptor (known) (human CB2 [3])
CCCCCc1cc(O)c2c(c1)OC(C)(CCC=C(C)C)C=C2 (stereo not shown) [CBC, cannabichromene] | known agonist at several transient receptor potential (TRP) channels, albeit somewhat weakly | more potent agonist | at least 4 fold | 
C=C(C)[C@@H]1CCC(C)=C[C@H]1c1c(O)cc(CCCCC)cc1O [CBD, cannabidiol] |  |  |  | known agonist
